Laboratory results: PubChem BioAssay AID1259407 (Chemical Carcinogenesis Research Information System (CCRIS), 2018)
Active and inactive are the calls of the source. No rule for the calls is given here.

Test system: CCRIS mutagenicity, Ames/micronucleus/aberration tests
Assay: CCRIS mutagenicity studies
[1] = Test System: AMES SALMONELLA TYPHIMURIUM, Strain/Indicator: TA98, Metabolic Activation: NONE, Method: PREINCUBATION
[2] = Test System: AMES SALMONELLA TYPHIMURIUM, Strain/Indicator: TA100, Metabolic Activation: NONE, Method: PREINCUBATION
[3] = Test System: AMES SALMONELLA TYPHIMURIUM, Strain/Indicator: TA98, Metabolic Activation: NONE, Method: STANDARD PLATE
[4] = Test System: AMES SALMONELLA TYPHIMURIUM, Strain/Indicator: TA100, Metabolic Activation: NONE, Method: STANDARD PLATE

In the case of `CC(=O)ON(C(C)=O)c1ccc(-c2ccccc2)cc1`, the mutagenic call (Test System: AMES SALMONELLA TYPHIMURIUM, Strain/Indicator: TA98(1,8-DNP6), Metabolic Activation: HUMAN, UROEPITHELIAL CELL, MICROSOMES, Method: PREINCUBATION) is reported as “active; positive”, the mutagenic call (Test System: AMES SALMONELLA TYPHIMURIUM, Strain/Indicator: TA98(1,8-DNP6), Metabolic Activation: NONE, Method: PREINCUBATION) is reported as “active; positive” and the mutagenic call (Test System: AMES SALMONELLA TYPHIMURIUM, Strain/Indicator: TA98, Metabolic Activation: DOG, BLADDER, MICROSOMES, Method: PREINCUBATION) is reported as “active; positive”. For the same compound, the mutagenic call (Test System: AMES SALMONELLA TYPHIMURIUM, Strain/Indicator: TA98, Metabolic Activation: DOG, LIVER, MICROSOMES, Method: PREINCUBATION) was “active; positive”, the mutagenic call (Test System: AMES SALMONELLA TYPHIMURIUM, Strain/Indicator: TA98, Metabolic Activation: HUMAN, UROEPITHELIAL CELL, CYTOSOL, Method: PREINCUBATION) was “inactive; negative” and the mutagenic call (Test System: AMES SALMONELLA TYPHIMURIUM, Strain/Indicator: TA98, Metabolic Activation: HUMAN, UROEPITHELIAL CELL, MICROSOMES, Method: PREINCUBATION) was “active; positive”. For the same compound, the mutagenic call (Test System: AMES SALMONELLA TYPHIMURIUM, Strain/Indicator: TA98, Metabolic Activation: HUMAN, UROEPITHELIAL CELL, S-9, Method: PREINCUBATION) was “active; positive”, the mutagenic call [1] was “active; positive” and the mutagenic call (Test System: AMES SALMONELLA TYPHIMURIUM, Strain/Indicator: TA98, Metabolic Activation: RAT, BLADDER, MICROSOMES, Method: PREINCUBATION) was “active; positive”. For the same compound, the mutagenic call (Test System: AMES SALMONELLA TYPHIMURIUM, Strain/Indicator: TA98, Metabolic Activation: RAT, LIVER, MICROSOMES, Method: PREINCUBATION) was “active; positive”, the mutagenic call (Test System: AMES SALMONELLA TYPHIMURIUM, Strain/Indicator: YG1024, Metabolic Activation: HUMAN, UROEPITHELIAL CELL, MICROSOMES, Method: PREINCUBATION) was “active; positive” and the mutagenic call (Test System: UDS HUMAN FIBROBLASTS, Strain/Indicator: THY INCORP (NON-S-PHASE), Metabolic Activation: NONE, Method: AUTORADIOGRAPHY) was “active; positive”.
`Clc1cccc(C(Cl)(Cl)Cl)n1` was tested, and the mutagenic call (Test System: AMES SALMONELLA TYPHIMURIUM, Strain/Indicator: TA97, Metabolic Activation: HAMSTER, LIVER, S-9, AROCLOR 1254 (10%), Method: PREINCUBATION) was “inactive; negative”, the mutagenic call (Test System: AMES SALMONELLA TYPHIMURIUM, Strain/Indicator: TA97, Metabolic Activation: NONE, Method: PREINCUBATION) was “inactive; negative” and the mutagenic call (Test System: AMES SALMONELLA TYPHIMURIUM, Strain/Indicator: TA97, Metabolic Activation: RAT, LIVER, S-9, AROCLOR 1254 (10%), Method: PREINCUBATION) was “inactive; negative”. The mutagenic call (Test System: AMES SALMONELLA TYPHIMURIUM, Strain/Indicator: TA98, Metabolic Activation: HAMSTER, LIVER, S-9, AROCLOR 1254 (5%), Method: PREINCUBATION) was “inactive; negative”, the mutagenic call (Test System: AMES SALMONELLA TYPHIMURIUM, Strain/Indicator: TA98, Metabolic Activation: HAMSTER, LIVER, S-9, AROCLOR 1254 (10%), Method: PREINCUBATION) was “active; positive” and the mutagenic call (Test System: AMES SALMONELLA TYPHIMURIUM, Strain/Indicator: TA98, Metabolic Activation: HAMSTER, LIVER, S-9, AROCLOR 1254 (30%), Method: PREINCUBATION) was “active; positive”. The mutagenic call [1] was “inactive; negative”, the mutagenic call (Test System: AMES SALMONELLA TYPHIMURIUM, Strain/Indicator: TA98, Metabolic Activation: RAT, LIVER, S-9, AROCLOR 1254 (5%), Method: PREINCUBATION) was “inactive; negative” and the mutagenic call (Test System: AMES SALMONELLA TYPHIMURIUM, Strain/Indicator: TA98, Metabolic Activation: RAT, LIVER, S-9, AROCLOR 1254 (10%), Method: PREINCUBATION) was “active; positive”. For the same compound, the mutagenic call (Test System: AMES SALMONELLA TYPHIMURIUM, Strain/Indicator: TA98, Metabolic Activation: RAT, LIVER, S-9, AROCLOR 1254 (30%), Method: PREINCUBATION) was “active; positive”, the mutagenic call (Test System: AMES SALMONELLA TYPHIMURIUM, Strain/Indicator: TA100, Metabolic Activation: HAMSTER, LIVER, S-9, AROCLOR 1254 (5 OR 10%), Method: PREINCUBATION) was “inactive; negative” and the mutagenic call (Test System: AMES SALMONELLA TYPHIMURIUM, Strain/Indicator: TA100, Metabolic Activation: HAMSTER, LIVER, S-9, AROCLOR 1254 (30%), Method: PREINCUBATION) was “active; positive”. For the same compound, the mutagenic call [2] was “inactive; negative”, the mutagenic call (Test System: AMES SALMONELLA TYPHIMURIUM, Strain/Indicator: TA100, Metabolic Activation: RAT, LIVER, S-9, AROCLOR 1254 (5 OR 10%), Method: PREINCUBATION) was “inactive; negative” and the mutagenic call (Test System: AMES SALMONELLA TYPHIMURIUM, Strain/Indicator: TA100, Metabolic Activation: RAT, LIVER, S-9, AROCLOR 1254 (30%), Method: PREINCUBATION) was “inactive; negative”. For the same compound, the mutagenic call (Test System: AMES SALMONELLA TYPHIMURIUM, Strain/Indicator: TA1535, Metabolic Activation: HAMSTER, LIVER, S-9, AROCLOR 1254 (10%), Method: PREINCUBATION) was “inactive; negative”, the mutagenic call (Test System: AMES SALMONELLA TYPHIMURIUM, Strain/Indicator: TA1535, Metabolic Activation: NONE, Method: PREINCUBATION) was “inactive; negative” and the mutagenic call (Test System: AMES SALMONELLA TYPHIMURIUM, Strain/Indicator: TA1535, Metabolic Activation: RAT, LIVER, S-9, AROCLOR 1254 (10%), Method: PREINCUBATION) was “inactive; negative”.
In the case of `Cc1ccc(C)c(N=Nc2c(O)ccc3ccccc23)c1`, the mutagenic call [3] is reported as “inactive; negative”, the mutagenic call (Test System: AMES SALMONELLA TYPHIMURIUM, Strain/Indicator: TA98, Metabolic Activation: RAT, LIVER, S-9, Method: STANDARD PLATE) is reported as “inactive; negative” and the mutagenic call [4] is reported as “inactive; negative”. The mutagenic call (Test System: AMES SALMONELLA TYPHIMURIUM, Strain/Indicator: TA100, Metabolic Activation: RAT, LIVER, S-9, Method: STANDARD PLATE) was “inactive; negative”.
`O=NN1CCSC1` was tested, and the mutagenic call [1] was “inactive; negative”, the mutagenic call [3] was “inactive; negative” and the mutagenic call (Test System: AMES SALMONELLA TYPHIMURIUM, Strain/Indicator: TA98, Metabolic Activation: RAT, LIVER, S-9, AROCLOR 1254, Method: PREINCUBATION) was “inactive; negative”. The mutagenic call (Test System: AMES SALMONELLA TYPHIMURIUM, Strain/Indicator: TA98, Metabolic Activation: RAT, LIVER, S-9, AROCLOR 1254, Method: STANDARD PLATE) was “active; positive”, the mutagenic call [4] was “active; positive” and the mutagenic call (Test System: AMES SALMONELLA TYPHIMURIUM, Strain/Indicator: TA100, Metabolic Activation: RAT, LIVER, S-9, AROCLOR 1254, Method: PREINCUBATION) was “active; positive”. The mutagenic call (Test System: AMES SALMONELLA TYPHIMURIUM, Strain/Indicator: TA100, Metabolic Activation: RAT, LIVER, S-9, AROCLOR 1254, Method: STANDARD PLATE) was “active; positive” and the mutagenic call (Test System: UDS RAT PRIMARY HEPATOCYTES, Strain/Indicator: THY INCORP, Metabolic Activation: NONE) was “active; positive”.
In the case of `COc1c2ccoc2c(OC)c2oc(=O)ccc12`, the mutagenic call [3] is reported as “inactive; negative” and the mutagenic call (Test System: AMES SALMONELLA TYPHIMURIUM, Strain/Indicator: TA98, Metabolic Activation: RAT, LIVER, S-9, PHENOBARBITAL, Method: STANDARD PLATE) is reported as “inactive; negative”.
With `O=[N+]([O-])c1c(O)ccc2ccccc12` the mutagenic call [1] was “active; positive”.
In the case of `Cc1cc(Cc2ccc(N)c(C)c2)ccc1N`, the mutagenic call [1] is reported as “inactive; negative”, the mutagenic call (Test System: AMES SALMONELLA TYPHIMURIUM, Strain/Indicator: TA98, Metabolic Activation: RAT, LIVER, S-9, PCB, Method: PREINCUBATION) is reported as “inactive; negative” and the mutagenic call [2] is reported as “inactive; negative”. For the same compound, the mutagenic call (Test System: AMES SALMONELLA TYPHIMURIUM, Strain/Indicator: TA100, Metabolic Activation: RAT, LIVER, S-9, PCB, Method: PREINCUBATION) was “inactive; negative”.
In the case of `CCc1ccccc1N`, the mutagenic call [1] is reported as “inactive; negative”, the mutagenic call (Test System: AMES SALMONELLA TYPHIMURIUM, Strain/Indicator: TA98, Metabolic Activation: S-9, Method: PREINCUBATION) is reported as “inactive; negative” and the mutagenic call [2] is reported as “inactive; negative”. The mutagenic call (Test System: AMES SALMONELLA TYPHIMURIUM, Strain/Indicator: TA100, Metabolic Activation: S-9, Method: PREINCUBATION) was “inactive; negative” and the mutagenic call (Test System: UDS RODENT HEPATOCYTES, Strain/Indicator: THY INCORP (NON-S-PHASE), Metabolic Activation: NONE, Method: AUTORADIOGRAPHY) was “inactive; negative”.
`O=C(CBr)c1oc([N+](=O)[O-])c(-c2ccccc2)c1-c1ccccc1` was tested, and the mutagenic call (Test System: AMES SALMONELLA TYPHIMURIUM, Strain/Indicator: TA98(NR), Metabolic Activation: NONE, Method: STANDARD PLATE) was “active; positive”, the mutagenic call [3] was “active; positive” and the mutagenic call (Test System: AMES SALMONELLA TYPHIMURIUM, Strain/Indicator: TA100(NR), Metabolic Activation: NONE, Method: STANDARD PLATE) was “active; positive”. The mutagenic call [4] was “active; positive”.
